Measured values from patent publication US6608082B1, “Treatment of erectile dysfunction using isoquinoline compound melanocortin receptor ligands” (Lion Bioscience AG, priority 1998, dated 2003).
Where “and” joins values, the source holds several entries; their conditions need not be identical. Equal entries are not always repeated.

Assays:
MCR-5 = target: T1, MCR-5 (Homo sapiens, UniProt P33032); test: Melanocortin receptor binding assay, competition with 125I-HP 467, HEK 293 cells expressing hMCR-5; conditions: binding to MCR-5, HEK 293 cells; read-out: MC-5 IC50
T1 construct: expressed in transfected cells; host or cells: HEK 293
Description: All cell culture media and reagents were obtained from GibcoBRL (Gaithersburg Md.), except for COSMIC CALF SERUM (HyClone; Logan Utah). HEK-293 cell lines were transfected with the human MC receptors hMCR-1, hMCR-3, and hMCR-4 (Gantz et al., Biochem. Biophys. Res. Comm. 200:1214-1220 (1994); Gantz et al., J. Biol. Chem. 268:8246-8250 (1993); Gantz et al. J. Biol. Chem. 268:15174-15179 (1993); Haskell-Leuvano et al., Biochem. Biophys. Res. Comm. 204:1137-1142 (1994); each of which is incorporated herein by reference). Vectors for construction of an hMCR-5 expressing cell line were obtained, and a line of HEK 293 cells expressing hMCR-5 was constructed (Gantz, supra, 1994). hMCR-5 has been described previously (Franberg et al., Biochem. Biophys. Res. Commun. 236:489-492 (1997); Chowdhary et al., Cytogenet. Cell Genet. 68:1-2 (1995); Chowdhary et al., Cytogenet. Cell Genet. 68:79-81 (1995), each of which is incorporated herein by reference). HEK 293 cells were maintained in DMEM, 25 mM HEPES, 2 mM glutamine, non-essential amino acids, vitamins, sodium pyruvate, 10% COSMIC CALF SERUM, 100 units/ml penicillin, 100 μg/ml streptomycin and 0.2 mg/ml G418 to maintain selection.
Before assaying, cells were washed once with phosphate buffered saline (“PBS”; without Ca^2+ and Mg^2+), and stripped from the flasks using 0.25% trypsin and 0.5 mM EDTA. Cells were suspended in PBS, 10% COSMIC CALF SERUM and 1 mM CaCl2. Cell suspensions were prepared at a density of 2×10^4 cells/ml for HEK 293 cells expressing hMCR-3, hMCR-4 or hMCR-5, and 1×10^5 cells/ml for HEK 293 cells expressing hMCR-1. Suspensions were placed in a water bath and allowed to warm to 37° C. for 1 hr.
Binding assays were performed in a total volume of 250 μl for HEK 293 cells. Control and test compounds were dissolved in distilled water. ^125I-HP 467 (50,000 dpm) (2000 Ci/mmol) (custom labeled by Amersham; Arlington Heights Ill.) was prepared in 50 mM Tris, pH 7.4, 2 mg/ml BSA, 10 mM CaCl2, 5 mM MgCl2, 2 mM EDTA and added to each tube. To each tube was added 4×10^3 HEK 293 cells expressing hMCR-3, hMCR-4 or hMCR-5, or 2×10^4 cells expressing hMCR-1. Assays were incubated for 2.5 hr at 37° C.
GF/B filter plates were prepared by soaking for at least one hour in 5 mg/ml BSA and 10 mM CaCl2. Assays were filtered using a Brandel 96-well cell harvester (Brandel Inc.; Gaithersburg, Md.). The filters were washed four times with cold 50 mM Tris, pH 7.4, the filter plates were dehydrated for 2 hr and 35 μl of MICROSCINT was added to each well. Filter plates were counted using a Packard Topcount (Packard Instrument Co.) and data analyzed using GraphPad PRISM v2.0 (GraphPad Software Inc.; San Diego Calif.) and Microsoft EXCEL v5.0a (Microsoft Corp.; Redmond Wash.).
To assay isoquinoline compounds, binding assays were performed in duplicate in a 96 well format. HP 467 was prepared in 50 mM Tris, pH 7.4, and ^125I-HP 467 was diluted to give 100,000 dpm per 50 μl. An isoquinoline compound, synthesized as described in Example I, was added to the well in 25 μl aliquots. A 25 μl aliquot of ^125I-HP 467 was added to each well. A 0.2 ml aliquot of suspended cells was added to each well to give the cell numbers indicate above, and the cells were incubated at 37° C. for 2.5 hr. Cells were harvested on GF/B filter plates as described above and counted.
Some of the isoquinoline compounds were further tested for binding to MCR-3 and MCR-5.

TNF-α = test: Reduction of lipopolysaccharide-induced tumor necrosis factor levels in mice; assay type: in vivo, BALB/c female mice; conditions: for % TNF-α Inhibtion, IP 30: 30 μg per mouse; for % TNF-α Inhibtion, IP 30 / % TNF-α Inhibtion, IP 100 / % TNF-α Inhibtion, IP 300 / % TNF-α Inhibtion, Oral 600 / % TNF-α Inhibtion, Oral 300: plasma 90 or 105 minutes after LPS, mean ± SEM; for % TNF-α Inhibtion, IP 100: 100 μg per mouse; for % TNF-α Inhibtion, IP 300 / % TNF-α Inhibtion, Oral 300: 300 μg per mouse; for % TNF-α Inhibtion, Oral 600: 600 μg per mouse
Description: BALB/c female mice weighing approximately 20 g were placed into a control group and a treated group. Five mg/kg of LPS in 0.9% saline was administered (100 μl to give 100 μg LPS per mouse) by intraperitoneal (IP) injection to all mice. Mice in the treatment group received either 30, 100, 300 or 600 μg of various isoquinoline compounds per mouse in a volume of 100 μl of PBS. Control mice received 100 μl of saline alone. One minute after initial injections all mice received the LPS injection. As a positive control, 100 μg of HP 228 was injected per mouse.
Blood samples were collected from the orbital sinus of treated and control mice 90 minutes or 105 minutes after LPS administration. The plasma was separated by centrifugation at 3000×g for 5 min and stored at −20° C. Samples were thawed and diluted, if TNF-α concentration was greater than 3200 pg/ml, with PBS containing 1% bovine serum albumin, 10% donor horse serum, 1% normal mouse serum, 0.05% TWEEN-20 and 0.05% thimerosal. A 100 μl sample of plasma was assayed by ELISA for TNF-α. Briefly, ELISA plates were coated with hamster anti-mouse TNF-α antibody (Genzyme; Cambridge Mass.). Samples or known concentrations of TNF-α were added to the coated plates and incubated for 2 hr at 37° C. Plates were washed and subsequently incubated with biotinylated rabbit anti-mouse TNG-α for 1 hr at 37° C. Plates were washed and incubated with streptavidin-HRP for 1 hr at 37° C., and HRP activity was detected with hydrogen peroxide and o-phenylenediamine (OPD) using standard immunoassay procedures.
The mean (±SEM) TNF-α level in five mice from each group was determined and the percent reduction in TNF-α levels was calculated.

T1 sequence (P33032 whole entry): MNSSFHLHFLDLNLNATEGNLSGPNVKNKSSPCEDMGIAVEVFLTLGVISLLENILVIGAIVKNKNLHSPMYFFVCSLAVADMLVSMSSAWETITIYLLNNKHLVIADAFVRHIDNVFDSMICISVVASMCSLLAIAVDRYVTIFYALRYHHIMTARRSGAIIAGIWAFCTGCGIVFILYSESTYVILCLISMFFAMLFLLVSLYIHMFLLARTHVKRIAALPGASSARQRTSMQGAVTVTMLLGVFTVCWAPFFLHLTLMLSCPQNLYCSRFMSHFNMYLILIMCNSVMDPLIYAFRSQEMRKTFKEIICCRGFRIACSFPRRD

Row | SMILES | IC50 (MCR-5) | % TNF-α Inhibtion, IP 30 (TNF-α) | % TNF-α Inhibtion, IP 100 (TNF-α) | % TNF-α Inhibtion, IP 300 (TNF-α) | decrease of TNF-α levels (TNF-α; LPS treated mice) | % TNF-α Inhibtion, Oral 600 (TNF-α) | % TNF-α Inhibtion, Oral 300 (TNF-α) | inhibiting TNF-α (TNF-α; LPS treated mice, both i.p. and oral administration)
1 | CNC(CN)CCCCN1Cc2ccccc2C(CNC2CCCCC2)C1c1ccc(N(C)C)cc1 (stereo not drawn) [TRG 2405-235] | 2.82 µM | 8 ± 7% | 39 ± 7% | 50 ± 9% |  |  |  | 
2 | CNC(CN)CCCCN1Cc2ccccc2C(CNC2CCCCC2)C1c1ccc(C(F)(F)F)cc1 (stereo not drawn) [TRG 2405-238] | 0.43 µM | 19 ± 7% | 73 ± 1 % | 84 ± 18 % |  | 6 ± 28% |  | 
3 | CCNc1ccc(C2C(CNC3CCCCC3)c3ccccc3CN2CCCCC(CN)NC)cc1 (stereo not drawn) [TRG 2405-239] | 8.72 µM | 13 ± 8% | 10 ± 6% | 66 ± 9 % |  | 9 ± 14% |  | 
4 | CNC(CN)CCCCN1Cc2ccccc2C(CNC2CCCCC2)C1c1ccc(-c2ccccc2)cc1 (stereo not drawn) [TRG 2405-241] | 1.04 µM | 26 ± 15% | 75 ± 3 % | 45 ± 9% | particularly effective at decreasing TNF-α | 74 ± 8 % | 38 ± 9 % | 
5 | CNC(CN)CCCCN1Cc2ccccc2C(CNC2CCCCC2)C1c1ccc(O)cc1 (stereo not drawn) [TRG 2405-246] | > 10 µM | 27 ± 9% |  | 80 ± 3 % |  | −29 ± 31 % |  | 
6 | CNC(CN)CCCCN1Cc2ccccc2C(CNC2CCCCC2)C1c1ccc2cccc(O)c2n1 (stereo not drawn) [TRG 2405-262] | > 10 µM |  |  | 83 ± 3 % |  |  |  | 
7 | CCNc1ccc(C2C(CNC3CCCCC3)c3ccccc3CN2CCCCC(CN)NC)cc1 (stereo not drawn) [TRG 2408-30] | 9.35 µM | 30 ± 14% |  | 78 ± 3 % | particularly effective at decreasing TNF-α | 74 ± 4 % | 42 ± 14 % | particularly effective at inhibiting TNF-α
8 | CCCCNc1ccc(C2C(CNCc3ccccc3O)c3ccccc3CN2CCCCC(CN)NC)cc1 (stereo not drawn) [TRG 2409-2] |  | 57 ± 6 % |  | 65 ± 14% |  | 65 ± 2 % | 58 ± 2 % | 
9 | CCCCNc1ccc(C2C(CNC3CCCCC3)c3ccccc3CN2CCCCC(CN)NC)cc1 (stereo not drawn) [TRG 2409-14] |  | 31 ± 7% |  | 76 ± 7 % |  | 67 ± 4 % | 41 ± 9 % | 

More lines, main results first:

Row | IC50 (MCR-5) | SMILES | % TNF-α Inhibtion, IP 30 (TNF-α) | % TNF-α Inhibtion, IP 100 (TNF-α) | % TNF-α Inhibtion, IP 300 (TNF-α) | decrease of TNF-α levels (TNF-α; LPS treated mice) | % TNF-α Inhibtion, Oral 600 (TNF-α) | % TNF-α Inhibtion, Oral 300 (TNF-α) | inhibiting TNF-α (TNF-α; LPS treated mice, both i.p. and oral administration)
10 | 2.83 µM | CNC(CN)CN1Cc2ccccc2C(CNC2CCCCC2)C1c1ccc(O)cc1 (stereo not drawn) [TRG 2405-156] | 30 ± 13% | 12 ± 7% | 48 ± 16% |  |  |  | 
11 | 0.8 µM | CNC(CN)CCCCN1Cc2ccccc2C(CNC2CCCCC2)C1c1ccc(Cl)cc1Cl (stereo not drawn) [TRG 2405-190] | 70 ± 11 % | −6 ± 7% | 83 ± 11 % | particularly effective at decreasing TNF-α |  |  | 
12 | 0.41 µM | CNC(CN)CCCCN1Cc2ccccc2C(CNC2CCCCC2)C1c1ccc(Br)cc1 (stereo not drawn) [TRG 2405-242] | 21 ± 8% | 60 ± 4 % | 68 ± 5 % |  |  |  | 
13 | 1.86 µM | CNC(CN)CCCCN1Cc2ccccc2C(CNC2CCCCC2)C1c1ccc(Oc2ccccc2)cc1 (stereo not drawn) [TRG 2405-252] | 49 ± 14 % |  | 90 ± 2 % | particularly effective at decreasing TNF-α | 55 ± 13 % |  | 
14 | 2.77 µM | CCCOc1ccc(C2C(CNC3CCCCC3)c3ccccc3CN2CCCCC(CN)NC)cc1 (stereo not drawn) [TRG 2405-253] | 46 ± 8% |  | 80 ± 7% | particularly effective at decreasing TNF-α |  |  | 
15 | 0.24 µM | CNC(CN)CCCCN1Cc2ccccc2C(CN)C1c1ccc(Cl)cc1Cl (stereo not drawn) [TRG 2407-39] | 24 ± 17% |  | 72 ± 5 % |  |  |  | 
16 | 1.7 µM | CCNc1ccc(C2C(CNCc3ccccc3O)c3ccccc3CN2CCCC(CN)NCCc2ccccc2)cc1 (stereo not drawn) [TRG 2408-57] | 76 ± 8 % | 83 ± 2 % and 87 ± 5 % | 86 ± 2 % |  | 72 ± 7 % | 21 ± 11% | 
17 | 2.79 µM | CCNc1ccc(C2C(CNC3CCCCC3)c3ccccc3CN2CCCC(CN)NCCc2ccccc2)cc1 (stereo not drawn) [TRG 2408-62] | 71 ± 6 % |  | 84 ± 8 % |  | 35 ± 5% | 45 ± 11% | 
